Experimental data: patent publication US20040086500A1, “Rh116 polypeptides and its fragments and polynucleotides encoding said polypeptides and therapeutic uses” (priority 2000, published 2004)
Entries after “also recorded” stand apart in the source; their conditions may differ.

Columns and labels:
RH116 gene = assay: Semiquantitative RT-PCR of RH116 gene expression in PBMCs of healthy donors; format: cell-based, human; conditions: 10 healthy controls, in particular after 6 hours, 10 μg/ml
Experimental: (§1) The total cellular RNA extracted using the RNA plus kit (Q-BIOgene, Illkirch, France) is pretreated with DNAse I. Synthesis of the first strand on the polyA+ RNA was primed with a p(dT)15 primer (BOERHINGER MANNHEIM, ROCHE DIAGNOSTICS, France) and carried out with the reverse transcriptase derived from the Moloney murine leukemia virus (M-MLV) (PROMEGA, Madison, Calif., USA) (1 hour at 37° C., 3 min at 92° C.). The resulting cDNA is then subjected to 25 to 35 repeat amplification cycles with the AmpliTaq Gold polymerase (APPLIED BIOSYSTEMS). PCR amplification of the GAPDH sequences is carried out in order to obtain an internal control. […]
PBMCs of patients (P) infected with HIV or of control healthy donors (C) are isolated, depleted of CD8+ lymphocytes (Dynabeads, Dynal) and stimulated with phytohemagglutinin, PHA (5 μg/ml), for 3 days. […] The number of amplification cycles was determined beforehand (35 cycles). The amplified fragments are visualized on an agarose gel (1%) in the presence of ethidium bromide, and then quantified using the Imager master program (Pharmacia). […] The results are then expressed as % increase or % inhibition of expression of the gene compared with the untreated cells. […]

[1] = system: human immunodeficiency virus (HIV); conditions: macrophages, dendritic cells, PBMCs of infected patients; cited from earlier work
[2] = in vivo; cited from earlier work
[3] = system: PBMCs of CD8 lymphocyte-depleted patients; format: cell-based, human
Excerpt: Specifically, MB inhibits by 70 to 100% the level of HIV viral protein p24 in the culture supernatants. This effect correlates with the level of expression of viral messenger RNAs (nonspliced and single-spliced).

RH116 messenger RNA = assay: Semiquantitative RT-PCR of RH116 mRNA in CD8-depleted PBMCs of HIV-1 infected patients; format: cell-based, human; conditions: for maximum mean inhibition of expression of the RH116 messenger RNA: murabutide 10 μg/ml
Excerpt: Venous blood is collected from patients sero-positive for HIV-1 and peripheral blood mononuclear cells (PBMCs) are isolated by centrifugation on Ficoll-Hypaque (AMERSHAM PHARMACIA BIOTECH, Uppsala, Sweden). The cells are washed carefully in order to remove the platelets and are depleted of CD8+ cells using electro-magnetic beads covered with an anti-CD8 antibody (DYNAL, Oslo, Norway). The depleted PBMCs obtained using the manufacturer's protocol contain less than 3% of CD8+ cells after analysis by flow cytometry. […]. Next, the PBMCs are cultured and then recovered in the presence or absence of murabutide (N-acetylmuramyl-L-alanyl-D-glutamine-n-butyl ester) (provided by ISTAC SA, Lille, France) (10 μg/ml) and interleukin 2 (IL-2) (10 μg/ml) for 6 or 24 hours.
as §1
PBMCs of patients (P) infected with HIV or of control healthy donors (C) are isolated, depleted of CD8+ lymphocytes (Dynabeads, Dynal) and stimulated with phytohemagglutinin, PHA (5 μg/ml), for 3 days. […] The number of amplification cycles was determined beforehand (35 cycles). The amplified fragments are visualized on an agarose gel (1%) in the presence of ethidium bromide, and then quantified using the Imager master program (Pharmacia). […]

## N-acetylmuramyl-L-alanyl-D-glutamine-n-butyl ester [murabutide]
RH116 gene
  expression of the RH116 gene compared with untreated cells: increases the level of expression; also recorded: very significant increase
[1]
  HIV replication: inhibits
[2]
  clinical tolerance: good clinical tolerance
  inflammatory reactions: does not induce inflammatory reactions
  pyrogenicity: not pyrogenic
  toxicity in clinical studies: has not shown severe toxicity
[3]
  number of live cells (lack of toxicity): remain unchanged
RH116 messenger RNA; 12 patients, 6 or 24 h, 10 μg/ml
  expression of the RH116 gene compared with untreated cells: significant inhibition
RH116 messenger RNA; 6 hours, patient No. 5
  maximum mean inhibition of expression of the RH116 messenger RNA: 90%
RH116 messenger RNA; 24 hours, patient No. 3
  maximum mean inhibition of expression of the RH116 messenger RNA: 57%
